Test results published in US6620936B2, “9-aminoacridine derivatives and process for the preparation thereof” (Samjin Pharmaceutical Co., Ltd., priority 1998, dated 2003).
Values after ≈ are worked out from the molar mass of the structure shown.

How the values were obtained:
[1] = system: HCT-15 (human colon); test: In vitro antitumor effect against human tumor cell lines, SRB assay; assay type: cell-based; conditions: 48 hours, HCT 15 cells
Experimental: (§1) In vitro antitumor effect against human tumor cell lines.
(§2) a. Human solid tumor cell lines, A549(non-small lung cell), SKMEL-2(melanoma), HCT-15(colon), SKOV-3(ovarian) and XF-498(CNS) were cultured in 5% CO2, incubators using the RPMI 1640 media containing 10% FBS at 37° C., while with transfer-culturing successively once or twice per week. Cell cultures were dissolved in a solution of 0.25% trysin and 3 mmol CDTA PBS(−) to separate the cells sticked on the culture media.
(§3) b. 5×10^3˜2×10^4 cells were added into each well of 96-well plate and cultured in 5% CO2, incubator at 37° C. for 24 hours.
(§4) c. Each sample drug was dissolved in a little DMSO and diluted with the used medium to a prescribed concentration for experiment, while the final concentration of DMSO was adjusted below 0.5%.
(§5) d. Medium of each well cultured for 24 hours as above b. was removed by aspiration. Each 200 μl of drug samples prepared in c. was added into each well and tine wells were cultured for 48 hours. Tz (time zero) plates were collected at the point of time drugs were added.
(§6) e. According to the SRB assay method, cell fixing with TCA, staining with 0.4% SRB solution, washing with 1% acetic acid and elution of dye with 10 mmol Tris solution were carried out on Tz plates and culture-ended plates, and then, OD values were measured at 520 nm.
(§7) a. Time zero (Tz) value was determined with measuring the SRB protein value at the point of time drugs were added.
(§8) b. Control value (C) was determined with the OD value of an well untreated with drug.
(§9) c. Drug-treated test value (T) was determined with the OD value of drug-treated well.
(§10) d. Effects of drugs were estimated with growth stimulation, net growth inhibition and net killing calculated from Tz, C and T values.
(§11) e. If T≧Tz, cellular response function was calculated by 100×(T−Tz)/(C−Tz), and, if T≦Tz, by 100×(T−Tz)/Tz.

[2] = system: SKOV-3 (human ovarian); test: as above; assay type: cell-based; conditions: 48 hours, SK-OV-3 cells
Experimental: as §1, §2, §3, §4, §5, §6, §7, §8, §9, §10, §11

[3] = system: XF-498 (human CNS); test: as above; assay type: cell-based; conditions: 48 hours, XF-498 cells
Experimental: as §1, §2, §3, §4, §5, §6, §7, §8, §9, §10, §11

[4] = system: SKMEL-2 (human melanoma); test: as above; assay type: cell-based; conditions: 48 hours, SK-MEL-2 cells
Experimental: as §1, §2, §3, §4, §5, §6, §7, §8, §9, §10, §11

[5] = system: A549 (human non-small lung cell); test: as above; assay type: cell-based; conditions: 48 hours, A549 cells
Experimental: as §1
A. Tumor cell lines : A549 (human non-small lung cell)
as §2, §3, §4, §5, §6, §7, §8, §9, §10, §11

[6] = target: Topoisomerase II; test: Inhibition effects against the Topoisomerase II activities (DNA relaxation assay, DNA cleavage assay); assay type: biochemical; conditions: supercoiled pBR322 DNA substrate, 30 minutes at 37° C.
Experimental: Inhibition effects against the Topoisomerase II activities
The present compounds were tested for inhibition of Topoisomerase II activity by means of the relaxation assay using supercoiled pBR322 DNA as the substrate. Topo II and a sample inhibitor were added to a reaction system (50 mmol Tris-HCl, pH 7.5, 50 mmol KCl, 20 mmol MgCl2, 0.5 mmol EDTA, 2 mmol ATP, 60 μg/ml BSA) containing supercoiled pBR322 DNA and reacted for 30 minutes at 37° C. Then, a quarter by volume of Stop buffer (5% SDS, 50 mmol EDTA, 30% glycerol, 0.1 mg/ml xylene cyanol, 0.1 mg/ml BPB) was added to the reaction system to stop the reaction. The resulting product went through electrophoresis on 0.7% agarose gel and was stained by ethidium bromide solution. Mobility of DNA was measured under ultraviolet rays.
Topo II and a sample inhibitor were added to cleavage buffer (30 mmol Tris-HCl, pH 7.5, 60 mmol KCl, 10 mmol MgCl2, 15 mmol β-mercaptoethanol, 30 μg /ml BSA) containing supercoiled pBR322 DNA and allowed to react for 30 minutes at 37° C. Then, […] by 1% was added to the reaction system to stop the reaction. Then, proteinase K was added thereto up to the concentration of 50 μg/ml and allowed to react for 30 minutes at 56° C. The reaction product was treated with phenol/chloroform to purify DNA, and the obtained DNA was loaded on agarose gel electrophoresis, transferred to nitrocellulose membrane and hybridized with probe DNA labelled with radioisotope. Then, the nitrocellulose membrane was covered with an X-ray film and exposed to be sensitized and developed, whereby the degree of cleavage of DNA was measured.

[7] = system: P388 (mouse lymphoid neoplasma cell); test: In vitro antitumor effects against animal leukemia cells, dye exclusion assay; assay type: cell-based; conditions: 48 hours, trypan blue dye exclusion, read-out: P388, concentration showing 50% cell growth inhibition (IC50)
Experimental: In vitro antitumor effects against animal leukemia cells.
Tumor cell lines: P388 (mouse lymphoid neoplasma cell)
B. Method: Dye Exclusion Assay.
1) The concentration of P388 cells being cultured in RPMI 1640 media containing 10% FBS was adjusted to 1×10^6 cells/ml.
2) Each sample drug of a concentration diluted in the ratio of log dose was added into cell culture media and cultured at 37° C. for 48 hours in […] incubator, and then viable cell number was measured by dye exclusion test using trypan blue.

[8] = Acute toxicity test (LD50), Litchfield-Wilcoxon method; conditions: mouse, in vivo, ip; male ICR mice, observed 14 days
Experimental: Acute Toxicity Test (LD50):
a) Method: Litchfield-Wilcoxon Method.
6-week-old ICR mice(male 30±2.0 g) were fed freely with solid feed and water at room temperature, 23±1° C. and at humidity 60±5%. Sample drugs were injected into the abdominal cavities of mice. Each group comprised 6 mice. Observed during 14 days, external appearances and life or death thereof were recorded, and also, visible lesions were observed from dead mice by dissection. LD50 value was calculated by Litchfield-wilcoxon method.

| SMILES | ED50 HCT 15 [1] | ED50 SK-OV-3 [2] | ED50 XF-498 [3] | ED50 SK-MEL-2 [4] | ED50 A 549 [5] | IC50 (μg/ml), inhibition of Topoisomerase II activity [6] | IC50 [7] | LD50 at 14 days [8] |
| --- | --- | --- | --- | --- | --- | --- | --- | --- |
| N.N.[Cl][Pt][Cl] [Cisplatin, reference compound] | 3.03 µg/mL | 0.71 µg/mL | 0.77 µg/mL | 0.71 µg/mL | 0.81 µg/mL | – | – | – |
| Nc1cc(COC(=O)Nc2ccccc2)cc(Nc2c3ccccc3nc3ccccc23)c1 [Example 1, [3-(acridin-9-yl)amino-5-amino]benzyl N-phenylcarbamate] | 0.57 µg/mL (≈ 1.31 µM) | 1.15 µg/mL (≈ 2.65 µM) | 0.44 µg/mL (≈ 1.01 µM) | 0.49 µg/mL (≈ 1.13 µM) | 0.96 µg/mL (≈ 2.21 µM) | 1 µg/mL | 0.9 µg/mL (≈ 2.07 µM) | – |
| COc1cccc(NC(=O)OCc2cc(N)cc(Nc3c4ccccc4nc4ccccc34)c2)c1 [Example 2, [3-(acridin-9-yl)amino-5-amino]benzyl N-(3-methoxyphenyl)carbamate] | 0.97 µg/mL (≈ 2.09 µM) | 0.68 µg/mL (≈ 1.46 µM) | 0.71 µg/mL (≈ 1.53 µM) | – | – | 3 µg/mL | – | – |
| COc1cc(NC(=O)OCc2cc(N)cc(Nc3c4ccccc4nc4ccccc34)c2)cc(OC)c1 [Example 3, [3-(acridin-9-yl)amino-5-amino]benzyl N-(3,5-dimethoxyphenyl)carbamate] | – | – | – | – | – | 3 µg/mL | – | – |
| COc1cc(NC(=O)OCc2cc(N)cc(Nc3c4ccccc4nc4ccccc34)c2)cc(OC)c1OC [Example 4, [3-(acridin-9-yl)amino-5-amino]benzyl N-(3,4,5-trimethoxyphenyl) carbamate] | 0.24 µg/mL (≈ 0.458 µM) | 0.19 µg/mL (≈ 0.362 µM) | 0.23 µg/mL (≈ 0.438 µM) | 0.20 µg/mL (≈ 0.381 µM) | 0.19 µg/mL (≈ 0.362 µM) | 5 µg/mL | – | – |
| Cc1cc(C)cc(NC(=O)OCc2cc(N)cc(Nc3c4ccccc4nc4ccccc34)c2)c1 [Example 6, [3-(acridin-9-yl)amino-5-amino]benzyl N-(3,5-dimethylphenyl) carbamate] | 0.33 µg/mL (≈ 0.713 µM) | 0.36 µg/mL (≈ 0.778 µM) | 0.37 µg/mL (≈ 0.8 µM) | 0.40 µg/mL (≈ 0.865 µM) | 0.72 µg/mL (≈ 1.56 µM) | 3 µg/mL | 0.8 µg/mL (≈ 1.73 µM) | – |
| Nc1cc(COC(=O)Nc2cc(F)cc(F)c2)cc(Nc2c3ccccc3nc3ccccc23)c1 [Example 12, [3-(acridin-9-yl)amino-5-amino]benzyl N-(3,5-difluorophenyl) carbamate] | – | – | – | – | – | 0.5 µg/mL | 1.2 µg/mL (≈ 2.55 µM) | 150 mg/kg |
| Nc1cc(COC(=O)Nc2cccc(Cl)c2)cc(Nc2c3ccccc3nc3ccccc23)c1 [Example 14, [3-(acridin-9-yl)amino-5-amino]benzyl N-(3-chlorophenyl) carbamate] | – | – | – | – | – | 1 µg/mL | – | – |
| COc1cc(NC(=S)OCc2cc(N)cc(Nc3c4ccccc4nc4ccccc34)c2)cc(OC)c1 [Example 18, [3-(acridin-9-yl)amino-5-amino]benzyl N-(3,5-dimethoxyphenyl)thiocarbamate] | – | – | – | – | – | 3 µg/mL | – | – |
| COc1cc(NC(=S)OCc2cc(N)cc(Nc3c4ccccc4nc4ccccc34)c2)cc(OC)c1OC [Example 19, [3-(acridin-9-yl)amino-5-amino]benzyl N-(3,4,5-trimethoxyphenyl)thiocarbamate] | – | – | – | – | – | 5 µg/mL | – | – |
| COc1cccc(NC(=O)OCc2cccc(Nc3c4ccccc4nc4ccccc34)c2)c1 [Example 20, 3-(acridin-9-yl)aminobenzyl N-(3-methoxyphenyl) carbamate] | – | – | – | – | – | 3 µg/mL | – | – |
| COc1cc(NC(=O)OCc2cccc(Nc3c4ccccc4nc4ccccc34)c2)cc(OC)c1 [Example 21, 3-(acridin-9-yl)aminobenzyl N-(3,5-dimethoxyphenyl) carbamate] | – | – | – | – | – | 3 µg/mL | – | – |
| COc1cc(NC(=O)OCc2cccc(Nc3c4ccccc4nc4ccccc34)c2)cc(OC)c1OC [Example 22, 3-(acridin-9-yl)aminobenzyl N-(3,4,5-trimethoxyphenyl) carbamate] | – | – | – | – | – | 5 µg/mL | – | – |
| CC=Nc1cc(CO)cc(Nc2c3ccccc3nc3ccccc23)c1 [Example 35, 3-(acridin-9-yl)amino-5-(ethylideneamino)phenylmethanol] | – | – | – | – | – | 5 µg/mL | – | – |
| CCC=Nc1cc(CO)cc(Nc2c3ccccc3nc3ccccc23)c1 [Example 36, 3-(acridin-9-yl)amino-5-(propylideneamino)phenylmethanol] | – | – | – | – | – | 3 µg/mL | – | – |
| CCCC=Nc1cc(CO)cc(Nc2c3ccccc3nc3ccccc23)c1 [Example 37, 3-(acridin-9-yl)amino-5-(butylideneamino)phenylmethanol] | 0.35 µg/mL (≈ 0.947 µM) | 0.93 µg/mL (≈ 2.52 µM) | 0.36 µg/mL (≈ 0.974 µM) | 0.89 µg/mL (≈ 2.41 µM) | 0.90 µg/mL (≈ 2.44 µM) | 5 µg/mL | – | – |
| C[C@H](N)C(=O)Nc1cc(CO)cc(Nc2c3ccccc3nc3ccccc23)c1 [Example 45, N-[3-(acridin-9-yl)amino-5-(hydroxymethyl)phenyl](2S)-2-aminopropaneamide] | 0.86 µg/mL (≈ 2.23 µM) | 0.21 µg/mL (≈ 0.543 µM) | 0.88 µg/mL (≈ 2.28 µM) | 0.25 µg/mL (≈ 0.647 µM) | 0.01 µg/mL (≈ 0.0259 µM) | 0.5 µg/mL | – | – |
| N[C@@H](Cc1ccccc1)C(=O)Nc1cc(CO)cc(Nc2c3ccccc3nc3ccccc23)c1 [Example 46, N-[3-(acridin-9-yl)amino-5-(hydroxymethyl)phenyl](2S)-2-amino-3-phenylpropaneamide] | – | – | – | – | – | 3 µg/mL | – | – |
